Source: patent US20260241039A1, “FLUORESCENT PROBES FOR MAGL” (Hoffmann-La Roche Inc., priority 2022, published 2026)

Biological target: T1, hMAGL (Homo sapiens, UniProt Q99685)
T1 sequence (Q99685 1-303): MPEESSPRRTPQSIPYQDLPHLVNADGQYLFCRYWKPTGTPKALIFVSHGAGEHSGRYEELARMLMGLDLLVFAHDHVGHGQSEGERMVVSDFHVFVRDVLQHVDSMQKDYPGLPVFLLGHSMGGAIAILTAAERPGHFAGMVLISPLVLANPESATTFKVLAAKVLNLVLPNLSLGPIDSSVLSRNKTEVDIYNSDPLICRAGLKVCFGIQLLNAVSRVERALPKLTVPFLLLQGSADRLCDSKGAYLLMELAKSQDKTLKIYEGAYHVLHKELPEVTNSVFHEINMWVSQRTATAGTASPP
Test: 2-AG assay: MAGL inhibitory activity, hydrolysis of 2-arachidonoylglycerol to arachidonic acid followed by mass spectrometry
Type: biochemical
Conditions: 15 min pre-incubation at RT, 30 min reaction at RT, 8 μM 2-arachidonoylglycerol
Experimental: Compounds were profiled for MAGL inhibitory activity by determining the enzymatic activity by following the hydrolysis of the natural substrate 2-arachidonoylglycerol (2-AG) resulting in arachidonic acid, which can be followed by mass spectrometry. This assay is hereinafter abbreviated “2-AG assay”.
The 2-AG assay was carried out in 384 well assay plates (PP, Greiner Cat #784201) in a total volume of 20 μL. Compound dilutions were made in 100% DMSO (VWR Chemicals 23500.297) in a polypropylene plate in 3-fold dilution steps to give a final concentration range in the assay from 12.5 μM to […]. 0.25 μL compound dilutions (100% DMSO) were added to 9 μL MAGL in assay buffer (50 mM TRIS (GIBCO, 15567-027), 1 mM EDTA (Fluka, 03690-100 mL), 0.01% (v/v) Tween. After shaking, the plate was incubated for 15 min at RT. To start the reaction, 10 μL 2-arachidonoylglycerol in assay buffer was added. The final concentrations in the assay was […] and 8 μM 2-arachidonoylglyerol. After shaking and 30 min incubation at RT, the reaction was quenched by the addition of 40 μL of ACN containing 4 μM of d8-arachidonic acid. The amount of arachidonic acid was traced by an online SPE system (Agilent Rapidfire) coupled to a triple quadrupole mass spectrometer (Agilent 6460). A C18 SPE cartridge (G9205A) was used in an ACN/water liquid setup. The mass spectrometer was operated in negative electrospray mode following the mass transitions 303.1→259.1 for arachidonic acid and 311.1→267.0 for d8-arachidonic acid. The activity of the compounds was calculated based on the ratio of intensities [arachidonic acid/d8-arachidonic acid].

Substance	IC50
(4aR,8aS)-6-(6-((5,5-difluoro-3-(1H-pyrrol-2-yl)-5H-4λ^4,5λ^4-dipyrrolo[1,2-c:2′,1′-f][1,3,2]diazaborinin-10-yl)methyl)-2-azaspiro[3.3]heptane-2-carbonyl)hexahydro-2H-pyrido[4,3-b][1,4]oxazin-3(4H)-one [Example 30]	0.05 nM
(4aR,8aS)-6-(6-((5,5-difluoro-3-phenyl-5H-4λ^4,5λ^4-dipyrrolo[1,2-c:2′,1′-f][1,3,2]diazaborinin-10-yl)methyl)-2-azaspiro[3.3]heptane-2-carbonyl)hexahydro-2H-pyrido[4,3-b][1,4]oxazin-3(4H)-one [Example 29]	0.66 nM
(4aR,8aS)-6-(6-((5,5-difluoro-5H-4λ^4, 5λ^4-dipyrrolo[1,2-c:2′,1′-f][1,3,2]diazaborinin-10-yl)oxy)-2-azaspiro[3.3]heptane-2-carbonyl)hexahydro-2H-pyrido[4,3-b][1,4]oxazin-3(4H)-one [Example 8]	79.3 nM
(4aR,8aS)-6-(7-((5,5-difluoro-5H-4λ^4, 5λ^4-dipyrrolo[1,2-c:2,1′-f][1,3,2]diazaborinin-10-yl)methyl)-2-azaspiro[3.5]nonane-2-carbonyl)hexahydro-2H-pyrido[4,3-b][1,4]oxazin-3(4H)-one [Example 19]	2.35 nM
(4aR,8aS)-6-(7-((5,5-difluoro-5H-4λ^4, 5λ^4-dipyrrolo[1,2-c:2,1′-f][1,3,2]diazaborinin-10-yl)methylene)-2-azaspiro[3.5]nonane-2-carbonyl)hexahydro-2H-pyrido[4,3-b][1, 4]oxazin-3(4H)-one [Example 18]	0.64 nM

The remaining lines, values ahead:

IC50	Substance
3.82 nM	(4aR,8aS)-6-(7-((5,5-difluoro-5H-4λ^4, 5λ^4-dipyrrolo[1,2-c:2,1′-f][1,3,2]diazaborinin-10-yl)oxy)-2-azaspiro[3.5]nonane-2-carbonyl)hexahydro-2H-pyrido[4,3-b][1,4]oxazin-3(4H)-one [Example 10]
0.34 nM	(6-(3-cyclopropyl-1H-1,2,4-triazol-1-yl)-2-azaspiro[3.3]heptan-2-yl)(6-((5,5-difluoro-5H-4λ^4,5λ^4-dipyrrolo[1,2-c:2,1′-f][1,3,2]diazaborinin-10-yl)methyl)-2-azaspiro[3.3]heptan-2-yl)methanone [Example 25]
17.2 nM	(6-((5,5-difluoro-5H-424, 5λ^4-dipyrrolo[1,2-c:2′,1′-f][1,3,2]diazaborinin-10-yl)methyl)-2-azaspiro[3.3]heptan-2-yl)(4-(5-methyloxazolo[4,5-b]pyridin-2-yl)piperazin-1-yl)methanone [Example 26]
1.01 nM	(R)-4-(3-(6-((5,5-difluoro-5H-4λ^4,5λ^4-dipyrrolo[1,2-c:2′,1′-f][1,3,2]diazaborinin-10-yl)methyl)-2-azaspiro[3.3]heptan-2-yl)-3-oxopropyl)oxazolidin-2-one [Example 28]
